{"source": "ChEMBL document CHEMBL4819125", "about": "“Synthesis and anti-proliferation activity of mogrol derivatives bearing quinoline and triazole moieties” (Bioorg Med Chem Lett, 2021)", "key": {"A549 [1]": {"tested_on": "A549", "test": "Induction of cell cycle arrest in human A549 cells assessed as S phase at 7.5 uM incubated for 72 hrs by PI staining based flow cytometry analysis (reference value: 31.35 %)", "format": "functional"}, "A549 [2]": {"tested_on": "A549", "test": "Induction of cell cycle arrest in human A549 cells assessed as G0/G1 phase at 7.5 uM incubated for 72 hrs by PI staining based flow cytometry analysis (reference value: 53.87 %)", "format": "functional"}, "A549 [3]": {"tested_on": "A549", "test": "Effect on STAT3 expression in human A549 cells at 3.75 to 15 uM incubated for 72 hrs by Western blot analysis", "format": "functional, cell-based", "conditions": "dose 3.75-15 µM"}, "A549 [4]": {"tested_on": "A549", "test": "Induction of cell cycle arrest in human A549 cells assessed as G0/G1 phase at 15 uM incubated for 72 hrs by PI staining based flow cytometry analysis (reference value: 53.87 %)", "format": "functional"}, "A549 [5]": {"tested_on": "A549", "test": "Induction of apoptosis in human A549 cells assessed as early apoptotic cells at 15 uM incubated for 72 hrs by annexin V-FITC and PI staining based flow cytometry analysis (reference value: 2.25 %)", "format": "functional"}, "A549 [6]": {"tested_on": "A549", "test": "Induction of apoptosis in human A549 cells assessed as necrotic cells at 7.5 uM incubated for 72 hrs by annexin V-FITC and PI staining based flow cytometry analysis (reference value: 1.27 %)", "format": "functional"}, "A549 [7]": {"tested_on": "A549", "test": "Induction of apoptosis in human A549 cells assessed as early apoptotic cells at 3.75 uM incubated for 72 hrs by annexin V-FITC and PI staining based flow cytometry analysis (reference value: 2.25 %)", "format": "functional"}, "A549 [8]": {"tested_on": "A549", "test": "Induction of apoptosis in human A549 cells assessed as late apoptotic cells at 7.5 uM incubated for 72 hrs by annexin V-FITC and PI staining based flow cytometry analysis (reference value: 0.5 %)", "format": "functional"}, "A549 [9]": {"tested_on": "A549", "test": "Induction of apoptosis in human A549 cells assessed as late apoptotic cells incubated for 72 hrs by annexin V-FITC and PI staining based flow cytometry analysis", "format": "functional, cell-based", "conditions": "dose 3.75-15 µM"}, "A549 [10]": {"tested_on": "A549", "test": "Induction of apoptosis in human A549 cells assessed as viable cells at 7.5 uM incubated for 72 hrs by annexin V-FITC and PI staining based flow cytometry analysis (reference value: 95.98 %)", "format": "functional", "conditions": "read-out: Activity"}, "A549 [11]": {"tested_on": "A549", "test": "Induction of apoptosis in human A549 cells assessed as viable cells at 3.75 uM incubated for 72 hrs by annexin V-FITC and PI staining based flow cytometry analysis (reference value: 95.98 %)", "format": "functional", "conditions": "read-out: Activity"}, "[12]": {"biological_target": "Signal transducer and activator of transcription 3 (Homo sapiens) (UniProt P40763)", "sequence (P40763 whole entry)": "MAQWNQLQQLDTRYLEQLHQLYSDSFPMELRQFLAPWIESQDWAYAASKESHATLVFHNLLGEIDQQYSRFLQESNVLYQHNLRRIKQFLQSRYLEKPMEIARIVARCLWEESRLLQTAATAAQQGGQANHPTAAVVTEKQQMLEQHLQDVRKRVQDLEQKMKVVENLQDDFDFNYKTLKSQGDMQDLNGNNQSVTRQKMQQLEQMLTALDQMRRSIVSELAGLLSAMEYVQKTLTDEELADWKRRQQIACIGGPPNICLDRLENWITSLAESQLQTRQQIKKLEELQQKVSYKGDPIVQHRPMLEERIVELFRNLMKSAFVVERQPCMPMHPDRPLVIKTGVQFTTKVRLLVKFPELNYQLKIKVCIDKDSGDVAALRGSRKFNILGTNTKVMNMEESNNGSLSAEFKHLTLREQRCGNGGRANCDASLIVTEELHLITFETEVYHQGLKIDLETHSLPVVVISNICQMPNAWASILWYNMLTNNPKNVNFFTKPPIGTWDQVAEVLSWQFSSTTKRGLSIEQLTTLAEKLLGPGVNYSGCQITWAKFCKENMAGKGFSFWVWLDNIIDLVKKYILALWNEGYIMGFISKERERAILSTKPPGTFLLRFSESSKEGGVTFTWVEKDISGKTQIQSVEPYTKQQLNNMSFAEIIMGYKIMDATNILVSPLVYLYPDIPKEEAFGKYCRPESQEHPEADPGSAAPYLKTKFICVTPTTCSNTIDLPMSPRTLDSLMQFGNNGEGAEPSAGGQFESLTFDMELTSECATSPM", "test": "Inhibition of STAT3 in human A549 cells assessed as reduction in STAT3 phosphorylation incubated for 72 hrs by Western blot analysis", "format": "cell-based", "conditions": "dose 3.75-15 µM"}, "A549 [13]": {"tested_on": "A549", "test": "Induction of apoptosis in human A549 cells assessed as viable cells at 15 uM incubated for 72 hrs by annexin V-FITC and PI staining based flow cytometry analysis (reference value: 95.98 %)", "format": "functional", "conditions": "read-out: Activity"}, "A549 [14]": {"tested_on": "A549", "test": "Induction of cell cycle arrest in human A549 cells assessed as G0/G1 phase incubated for 72 hrs by PI staining based flow cytometry analysis", "format": "functional", "conditions": "dose 3.75-15 µM"}, "NCI-H460": {"tested_on": "NCI-H460", "test": "Antiproliferative activity against human NCI-H460 cells assessed as reduction in cell growth at 30 uM by CCK8 assay relative to control", "format": "functional"}, "A549 [15]": {"tested_on": "A549", "test": "Induction of apoptosis in human A549 cells assessed as late apoptotic cells at 3.75 uM incubated for 72 hrs by annexin V-FITC and PI staining based flow cytometry analysis (reference value: 0.5 %)", "format": "functional"}, "A549 [16]": {"tested_on": "A549", "test": "Induction of cell cycle arrest in human A549 cells assessed as G2/M phase at 3.75 uM incubated for 72 hrs by PI staining based flow cytometry analysis (reference value: 14.78 %)", "format": "functional"}, "A549 [17]": {"tested_on": "A549", "test": "Induction of apoptosis in human A549 cells assessed as early apoptotic cells incubated for 72 hrs by annexin V-FITC and PI staining based flow cytometry analysis", "format": "functional, cell-based", "conditions": "dose 3.75-15 µM"}, "A549 [18]": {"tested_on": "A549", "test": "Induction of cell cycle arrest in human A549 cells assessed as G0/G1 phase at 3.75 uM incubated for 72 hrs by PI staining based flow cytometry analysis (reference value: 53.87 %)", "format": "functional"}, "A549 [19]": {"tested_on": "A549", "test": "Induction of apoptosis in human A549 cells assessed as necrotic cells at 3.75 uM incubated for 72 hrs by annexin V-FITC and PI staining based flow cytometry analysis (reference value: 1.27 %)", "format": "functional"}, "A549 [20]": {"tested_on": "A549", "test": "Induction of apoptosis in human A549 cells assessed as early apoptotic cells at 7.5 uM incubated for 72 hrs by annexin V-FITC and PI staining based flow cytometry analysis (reference value: 2.25 %)", "format": "functional"}, "A549 [21]": {"tested_on": "A549", "test": "Antiproliferative activity against human A549 cells assessed as reduction in cell growth by CCK8 assay", "format": "functional, cell-based"}, "A549 [22]": {"tested_on": "A549", "test": "Antiproliferative activity against human A549 cells assessed as reduction in cell growth at 30 uM by CCK8 assay relative to control", "format": "functional"}, "A549 [23]": {"tested_on": "A549", "test": "Induction of apoptosis in human A549 cells assessed as late apoptotic cells at 15 uM incubated for 72 hrs by annexin V-FITC and PI staining based flow cytometry analysis (reference value: 0.5 %)", "format": "functional"}, "A549 [24]": {"tested_on": "A549", "test": "Induction of cell cycle arrest in human A549 cells assessed as S phase at 3.75 uM incubated for 72 hrs by PI staining based flow cytometry analysis (reference value: 31.35 %)", "format": "functional"}, "A549 [25]": {"tested_on": "A549", "test": "Induction of cell cycle arrest in human A549 cells assessed as S phase at 15 uM incubated for 72 hrs by PI staining based flow cytometry analysis (reference value: 31.35 %)", "format": "functional"}, "A549 [26]": {"tested_on": "A549", "test": "Induction of apoptosis in human A549 cells assessed as necrotic cells at 15 uM incubated for 72 hrs by annexin V-FITC and PI staining based flow cytometry analysis (reference value: 1.27 %)", "format": "functional"}, "A549 [27]": {"tested_on": "A549", "test": "Induction of cell cycle arrest in human A549 cells assessed as G2/M phase at 7.5 uM incubated for 72 hrs by PI staining based flow cytometry analysis (reference value: 14.78 %)", "format": "functional"}, "A549 [28]": {"tested_on": "A549", "test": "Induction of cell cycle arrest in human A549 cells assessed as G2/M phase at 15 uM incubated for 72 hrs by PI staining based flow cytometry analysis (reference value: 14.78 %)", "format": "functional"}}, "note": "Calls of active or inactive are those of the source. No cut-off for these calls is given here."}
{"smiles": "C[C@H](CC[C@@H](O)C(C)(C)O)[C@H]1CC[C@@]2(C)[C@@H]3CC=C4[C@@H](CC[C@H](O)C4(C)C)[C@]3(C)[C@H](OC(=O)Cn3cc(-c4cccc(Cl)c4)nn3)C[C@]12C", "values": [{"measurement": "Activity", "setting": "A549 [1]", "result": 28.46, "unit": "%"}, {"measurement": "Activity", "setting": "A549 [2]", "result": 60.04, "unit": "%"}, {"measurement": "inhibition", "setting": "A549 [3]", "result": "Active"}, {"measurement": "Activity", "setting": "A549 [4]", "result": 72.72, "unit": "%"}, {"measurement": "Activity", "setting": "A549 [5]", "result": 4.8, "unit": "%"}, {"measurement": "Activity", "setting": "A549 [6]", "result": 3.37, "unit": "%"}, {"measurement": "Activity", "setting": "A549 [7]", "result": 2.28, "unit": "%"}, {"measurement": "Activity", "setting": "A549 [8]", "result": 1.27, "unit": "%"}, {"measurement": "Activity", "setting": "A549 [9]", "result": "Dose-Dependent Effect"}, {"measurement": "viability at 7.5 µM", "setting": "A549 [10]", "result": 91.7, "unit": "%"}, {"measurement": "viability at 3.75 µM", "setting": "A549 [11]", "result": 94.9, "unit": "%"}, {"measurement": "inhibition", "setting": "[12]", "result": "Dose-Dependent Effect"}, {"measurement": "viability at 15 µM", "setting": "A549 [13]", "result": 91.7, "unit": "%"}, {"measurement": "Activity", "setting": "A549 [14]", "result": "Dose-Dependent Effect"}, {"measurement": "inhibition at 30 µM", "setting": "NCI-H460", "result": 33.8, "unit": "%"}, {"measurement": "Activity", "setting": "A549 [15]", "result": 0.79, "unit": "%"}, {"measurement": "Activity", "setting": "A549 [16]", "result": 13.93, "unit": "%"}, {"measurement": "Activity", "setting": "A549 [17]", "result": "Dose-Dependent Effect"}, {"measurement": "Activity", "setting": "A549 [18]", "result": 55.45, "unit": "%"}, {"measurement": "Activity", "setting": "A549 [19]", "result": 2.07, "unit": "%"}, {"measurement": "Activity", "setting": "A549 [20]", "result": 3.66, "unit": "%"}, {"measurement": "IC50", "setting": "A549 [21]", "result": 4.47, "unit": "µM"}, {"measurement": "inhibition at 30 µM", "setting": "A549 [22]", "result": 90.2, "unit": "%"}, {"measurement": "Activity", "setting": "A549 [23]", "result": 1.53, "unit": "%"}, {"measurement": "Activity", "setting": "A549 [24]", "result": 30.62, "unit": "%"}, {"measurement": "Activity", "setting": "A549 [25]", "result": 16.03, "unit": "%"}, {"measurement": "Activity", "setting": "A549 [26]", "result": 1.92, "unit": "%"}, {"measurement": "Activity", "setting": "A549 [27]", "result": 11.5, "unit": "%"}, {"measurement": "Activity", "setting": "A549 [28]", "result": 11.25, "unit": "%"}]}
